Data published in ChEMBL document CHEMBL1201861, “Genomics of Drug Sensitity in Cancer screening data, Wellcome Trust Sanger Institute”.

Key:
Assay in all cases: cells
Settings in all cases: Homo sapiens
DU-145 = format: functional, cell-based
Description: SANGER: Inhibition of human DU-145 cell growth in a cell viability assay.

NCI-H2228 = format: functional, cell-based;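 also: growth inhibition of human NCI-H2228 cells, read out by a cell viability assay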
Description: SANGER: Inhibition of human NCI-H2228 cell growth in a cell viability assay.

IGR-1 = format: functional, cell-based;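 also: growth inhibition of human IGR-1 cells, read out with a cell viability assay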
Description: SANGER: Inhibition of human IGR-1 cell growth in a cell viability assay.

HOP-92 = format: functional, cell-based;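 also: cell viability readout, with IC50 reflecting inhibition of HOP-92 cell growth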
Description: SANGER: Inhibition of human HOP-92 cell growth in a cell viability assay.

NCI-H1755 = format: functional, cell-based;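 also: cell viability readout used to measure growth inhibition of NCI-H1755 cells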
Description: SANGER: Inhibition of human NCI-H1755 cell growth in a cell viability assay.

NCI-H1437 = format: functional, cell-based;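 also: growth inhibition of human NCI-H1437 cells, read out by a cell viability assay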
Description: SANGER: Inhibition of human NCI-H1437 cell growth in a cell viability assay.

UACC-893 = format: functional, cell-based
Description: SANGER: Inhibition of human UACC-893 cell growth in a cell viability assay.

RVH-421 = format: functional, cell-based
Description: SANGER: Inhibition of human RVH-421 cell growth in a cell viability assay.

NCI-H661 = format: functional, cell-based;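 also: cell viability assay read-out, IC50 being the concentration that inhibits growth of the cells by half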
Description: SANGER: Inhibition of human NCI-H661 cell growth in a cell viability assay.

BHY = format: functional, cell-based;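 also: cell growth inhibition read out by a viability assay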
Description: SANGER: Inhibition of human BHY cell growth in a cell viability assay.

647-V = format: functional, cell-based;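 also: growth inhibition of 647-V cells, read out with a cell viability assay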
Description: SANGER: Inhibition of human 647-V cell growth in a cell viability assay.

MeWo = format: functional, cell-based;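 also: growth inhibition of MeWo cells, determined by a cell viability readout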
Description: SANGER: Inhibition of human Mewo cell growth in a cell viability assay.

NCI-H2405 = format: functional, cell-based;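 also: growth inhibition of the human cell line, read out with a cell viability assay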
Description: SANGER: Inhibition of human NCI-H2405 cell growth in a cell viability assay.

NCI-H650 = format: functional, cell-based;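 also: growth inhibition of NCI-H650 cells, read out by a viability assay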
Description: SANGER: Inhibition of human NCI-H650 cell growth in a cell viability assay.

SK-LU-1 = format: functional, cell-based;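 also: cell viability assay measuring growth inhibition of human SK-LU-1 cells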
Description: SANGER: Inhibition of human SK-LU-1 cell growth in a cell viability assay.

SW1417 = format: functional, cell-based;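 also: growth inhibition of human SW1417 cells, read out with a cell viability assay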
Description: SANGER: Inhibition of human SW1417 cell growth in a cell viability assay.

ACHN = format: functional, cell-based;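 also: cell viability read-out used to gauge how strongly growth of human ACHN cells is suppressed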
Description: SANGER: Inhibition of human ACHN cell growth in a cell viability assay.

GCT = format: functional, cell-based;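 also: GCT cell line proliferation inhibition, read out with a cell viability assay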
Description: SANGER: Inhibition of human GCT cell growth in a cell viability assay.

HuCCT-1 = format: functional, cell-based, HuCCT1;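 also: growth inhibition of HuCCT-1 cells, read out by a cell viability assay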
Description: SANGER: Inhibition of human HuCCT1 cell growth in a cell viability assay.

GP5d = format: functional, cell-based;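 also: growth inhibition of human GP5d cells, read out with a cell viability assay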
Description: SANGER: Inhibition of human GP5d cell growth in a cell viability assay.

OAW-28 = format: functional, cell-based;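 also: growth inhibition of OAW-28 cells, read out with a cell viability assay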
Description: SANGER: Inhibition of human OAW-28 cell growth in a cell viability assay.

HT55 = format: functional, cell-based;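 also: cell viability readout measuring growth inhibition of human HT55 cells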
Description: SANGER: Inhibition of human HT55 cell growth in a cell viability assay.

NCI-H596 = format: functional, cell-based;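 also: growth inhibition of NCI-H596 cells, read out with a cell viability assay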
Description: SANGER: Inhibition of human NCI-H596 cell growth in a cell viability assay.

BPH-1 = format: functional, cell-based;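 also: cell viability assay measuring growth inhibition of human BPH-1 cells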
Description: SANGER: Inhibition of human BPH-1 cell growth in a cell viability assay.

A204 = format: functional, cell-based;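 also: growth inhibition of human A204 cells, read out with a cell viability assay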
Description: SANGER: Inhibition of human A204 cell growth in a cell viability assay.

SF-295 = format: functional, cell-based;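 also: growth inhibition of SF-295 cells, read out with a cell viability assay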
Description: SANGER: Inhibition of human SF295 cell growth in a cell viability assay.

SAOS-2 = format: functional, cell-based;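 also: growth inhibition of human Saos-2 cells determined by a cell viability assay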
Description: SANGER: Inhibition of human Saos-2 cell growth in a cell viability assay.

SW1990 = format: functional, cell-based;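 also: cell growth inhibition determined with a viability assay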
Description: SANGER: Inhibition of human SW1990 cell growth in a cell viability assay.

SK-MEL-28 = format: functional, cell-based;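 also: growth inhibition of human SK-MEL-28 cells, read out with a cell viability assay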
Description: SANGER: Inhibition of human SK-MEL-28 cell growth in a cell viability assay.

8305C = format: functional, cell-based
Description: SANGER: Inhibition of human 8305C cell growth in a cell viability assay.

MKN-1 = format: functional, cell-based;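 also: growth inhibition of human MKN1 cells, read out by a cell viability measurement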
Description: SANGER: Inhibition of human MKN1 cell growth in a cell viability assay.

NCI-H1573 = format: functional, cell-based;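 also: growth inhibition of NCI-H1573 cells, read out with a cell viability assay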
Description: SANGER: Inhibition of human NCI-H1573 cell growth in a cell viability assay.

HCT-116 = format: functional, cell-based
Description: SANGER: Inhibition of human HCT-116 cell growth in a cell viability assay.

COLO-741 = format: functional, cell-based
Description: SANGER: Inhibition of human COLO-741 cell growth in a cell viability assay.

MFE-280 = format: functional, cell-based;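 also: growth inhibition of MFE-280 cells, determined with a cell viability readout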
Description: SANGER: Inhibition of human MFE-280 cell growth in a cell viability assay.

SW1573 = format: functional, cell-based;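 also: growth inhibition of SW1573 cells, read out with a cell viability assay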
Description: SANGER: Inhibition of human SW1573 cell growth in a cell viability assay.

MKN-7 = format: functional, cell-based;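 also: growth inhibition of MKN-7 cells, read out with a cell viability assay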
Description: SANGER: Inhibition of human MKN7 cell growth in a cell viability assay.

D-247MG = format: functional, cell-based
Description: SANGER: Inhibition of human D-247MG cell growth in a cell viability assay.

VM-CUB-1 = format: functional, cell-based;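 also: cell viability assay measuring growth inhibition of the human VM-CUB-1 cell line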
Description: SANGER: Inhibition of human VM-CUB-1 cell growth in a cell viability assay.

MCF7 = format: functional, cell-based;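 also: growth inhibition of human MCF7 cells, read out with a cell viability assay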
Description: SANGER: Inhibition of human MCF7 cell growth in a cell viability assay.

HCC38 = format: functional, cell-based;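 also: cell viability assay on the human HCC38 cell line, with IC50 marking the concentration that inhibits cell growth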
Description: SANGER: Inhibition of human HCC38 cell growth in a cell viability assay.

HT-1080 = format: functional, cell-based
Description: SANGER: Inhibition of human HT-1080 cell growth in a cell viability assay.

HCC1937 = format: functional, cell-based;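 also: growth inhibition measured with a cell viability read-out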
Description: SANGER: Inhibition of human HCC1937 cell growth in a cell viability assay.

NCI-H460 = format: functional, cell-based;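 also: cell viability assay scoring growth inhibition of human NCI-H460 cells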
Description: SANGER: Inhibition of human NCI-H460 cell growth in a cell viability assay.

CP50-MEL-B = format: functional, cell-based;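 also: growth inhibition of the human cell line, measured with a cell viability read-out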
Description: SANGER: Inhibition of human CP50-MEL-B cell growth in a cell viability assay.

DoTc2-4510 = format: functional, cell-based
KYSE-510 = format: functional, cell-based;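 also: cell viability readout used to measure how strongly growth of the cell line is suppressed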
Description: SANGER: Inhibition of human KYSE-510 cell growth in a cell viability assay.

ESS-1 = format: functional, cell-based;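 also: growth inhibition of human ESS-1 cells, read out by a cell viability assay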
Description: SANGER: Inhibition of human ESS-1 cell growth in a cell viability assay.

T-24 = format: functional, cell-based;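 also: growth inhibition of T-24 cells, read out with a cell viability assay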
Description: SANGER: Inhibition of human T-24 cell growth in a cell viability assay.

HOS = format: functional, cell-based;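 also: growth inhibition of human HOS cells, read out with a cell viability assay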
Description: SANGER: Inhibition of human HOS cell growth in a cell viability assay.

COLO-678 = format: functional, cell-based
Description: SANGER: Inhibition of human COLO-678 cell growth in a cell viability assay.

NCI-H28 = format: functional, cell-based;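 also: growth inhibition of human NCI-H28 cells, read out as cell viability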
Description: SANGER: Inhibition of human NCI-H28 cell growth in a cell viability assay.

HuP-T3 = format: functional, cell-based;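 also: HuP-T3 cell growth inhibition, read out with a cell viability assay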
Description: SANGER: Inhibition of human HuP-T3 cell growth in a cell viability assay.

UACC-62 = format: functional, cell-based;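 also: growth inhibition of human UACC-62 cells, read out by a cell viability assay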
Description: SANGER: Inhibition of human UACC-62 cell growth in a cell viability assay.

C[C@]12O[C@H](C[C@]1(O)CO)n1c3ccccc3c3c4c(c5c6ccccc6n2c5c31)CNC4=O [LESTAURTINIB]
IC50 (DU-145): > 2 µM
IC50 (NCI-H2228): > 2 µM
IC50 (IGR-1): 1.49 µM
IC50 (HOP-92): 0.909 µM
IC50 (NCI-H1755): 0.185 µM
IC50 (NCI-H1437): > 2 µM
IC50 (UACC-893): > 2 µM
IC50 (RVH-421): 0.244 µM
IC50 (NCI-H661): > 2 µM
IC50 (BHY): 0.872 µM
IC50 (647-V): 1 µM
IC50 (MeWo): 0.718 µM
IC50 (NCI-H2405): 1.82 µM
IC50 (NCI-H650): 0.677 µM
IC50 (SK-LU-1): 0.256 µM
IC50 (SW1417): 1.17 µM
IC50 (ACHN): 0.104 µM
IC50 (GCT): 0.327 µM
IC50 (HuCCT-1): 0.862 µM
IC50 (GP5d): 0.177 µM
IC50 (OAW-28): > 2 µM
IC50 (HT55): > 2 µM
IC50 (NCI-H596): > 2 µM
IC50 (BPH-1): 1.3 µM
IC50 (A204): 0.152 µM
IC50 (SF-295): 0.428 µM
IC50 (SAOS-2): 0.635 µM
IC50 (SW1990): 1.38 µM
IC50 (SK-MEL-28): 0.327 µM
IC50 (8305C): > 2 µM
IC50 (MKN-1): > 2 µM
IC50 (NCI-H1573): 0.686 µM
IC50 (HCT-116): 0.137 µM
IC50 (COLO-741): 1.43 µM
IC50 (MFE-280): > 2 µM
IC50 (SW1573): 1.07 µM
IC50 (MKN-7): 1.81 µM
IC50 (D-247MG): 0.528 µM
IC50 (VM-CUB-1): 0.651 µM
IC50 (MCF7): > 2 µM
IC50 (HCC38): > 2 µM
IC50 (HT-1080): 0.0403 µM
IC50 (HCC1937): > 2 µM
IC50 (NCI-H460): 1.17 µM
IC50 (CP50-MEL-B): 0.632 µM
IC50 (DoTc2-4510): > 2 µM
IC50 (KYSE-510): > 2 µM
IC50 (ESS-1): 0.682 µM
IC50 (T-24): > 2 µM
IC50 (HOS): 0.232 µM
IC50 (COLO-678): > 2 µM
IC50 (NCI-H28): 0.833 µM
IC50 (HuP-T3): 0.966 µM
IC50 (UACC-62): 1.12 µM

CCCS(=O)(=O)Nc1ccc(F)c(C(=O)c2c[nH]c3ncc(Cl)cc23)c1F [PLX-4720]
IC50 (DU-145): > 10 µM
IC50 (NCI-H2228): > 10 µM
IC50 (IGR-1): > 10 µM
IC50 (HOP-92): > 10 µM
IC50 (NCI-H1755): > 10 µM
IC50 (NCI-H1437): > 10 µM
IC50 (UACC-893): > 10 µM
IC50 (RVH-421): 0.868 µM
IC50 (NCI-H661): > 10 µM
IC50 (BHY): > 10 µM
IC50 (647-V): > 10 µM
IC50 (MeWo): > 10 µM
IC50 (NCI-H2405): > 10 µM
IC50 (NCI-H650): > 10 µM
IC50 (SK-LU-1): > 10 µM
IC50 (SW1417): > 10 µM
IC50 (ACHN): > 10 µM
IC50 (GCT): 8.75 µM
IC50 (HuCCT-1): > 10 µM
IC50 (GP5d): > 10 µM
IC50 (OAW-28): > 10 µM
IC50 (HT55): > 10 µM
IC50 (NCI-H596): > 10 µM
IC50 (BPH-1): > 10 µM
IC50 (A204): > 10 µM
IC50 (SF-295): > 10 µM
IC50 (SAOS-2): > 10 µM
IC50 (SW1990): > 10 µM
IC50 (SK-MEL-28): 1.05 µM
IC50 (8305C): 5.19 µM
IC50 (MKN-1): > 10 µM
IC50 (NCI-H1573): > 10 µM
IC50 (HCT-116): > 10 µM
IC50 (COLO-741): 8.02 µM
IC50 (MFE-280): > 10 µM
IC50 (SW1573): > 10 µM
IC50 (MKN-7): > 10 µM
IC50 (D-247MG): > 10 µM
IC50 (VM-CUB-1): > 10 µM
IC50 (MCF7): > 10 µM
IC50 (HCC38): > 10 µM
IC50 (HT-1080): 6.11 µM
IC50 (HCC1937): > 10 µM
IC50 (NCI-H460): > 10 µM
IC50 (CP50-MEL-B): 0.298 µM
IC50 (DoTc2-4510): > 10 µM
IC50 (KYSE-510): > 10 µM
IC50 (ESS-1): > 10 µM
IC50 (T-24): > 10 µM
IC50 (HOS): > 10 µM
IC50 (COLO-678): > 10 µM
IC50 (NCI-H28): > 10 µM
IC50 (HuP-T3): > 10 µM
IC50 (UACC-62): > 10 µM

C[C@]1(c2nc3c(C(N)=O)cccc3[nH]2)CCCN1 [VELIPARIB]
IC50 (DU-145): > 5 µM
IC50 (NCI-H2228): > 5 µM
IC50 (IGR-1): > 5 µM
IC50 (HOP-92): > 5 µM
IC50 (NCI-H1755): > 5 µM
IC50 (NCI-H1437): > 5 µM
IC50 (UACC-893): > 5 µM
IC50 (RVH-421): > 5 µM
IC50 (NCI-H661): > 5 µM
IC50 (BHY): > 5 µM
IC50 (647-V): > 5 µM
IC50 (MeWo): > 5 µM
IC50 (NCI-H2405): > 5 µM
IC50 (NCI-H650): > 5 µM
IC50 (SK-LU-1): > 5 µM
IC50 (SW1417): > 5 µM
IC50 (ACHN): > 5 µM
IC50 (GCT): > 5 µM
IC50 (HuCCT-1): > 5 µM
IC50 (GP5d): > 5 µM
IC50 (OAW-28): > 5 µM
IC50 (HT55): > 5 µM
IC50 (NCI-H596): > 5 µM
IC50 (BPH-1): > 5 µM
IC50 (A204): > 5 µM
IC50 (SF-295): > 5 µM
IC50 (SAOS-2): > 5 µM
IC50 (SW1990): > 5 µM
IC50 (SK-MEL-28): > 5 µM
IC50 (8305C): > 5 µM
IC50 (MKN-1): > 5 µM
IC50 (NCI-H1573): > 5 µM
IC50 (HCT-116): > 5 µM
IC50 (COLO-741): > 5 µM
IC50 (MFE-280): > 5 µM
IC50 (SW1573): > 5 µM
IC50 (MKN-7): > 5 µM
IC50 (D-247MG): > 5 µM
IC50 (VM-CUB-1): > 5 µM
IC50 (MCF7): > 5 µM
IC50 (HCC38): > 5 µM
IC50 (HT-1080): > 5 µM
IC50 (HCC1937): > 5 µM
IC50 (NCI-H460): > 5 µM
IC50 (CP50-MEL-B): > 5 µM
IC50 (DoTc2-4510): > 5 µM
IC50 (KYSE-510): > 5 µM
IC50 (ESS-1): > 5 µM
IC50 (T-24): > 5 µM
IC50 (HOS): > 5 µM
IC50 (COLO-678): > 5 µM
IC50 (NCI-H28): > 5 µM
IC50 (HuP-T3): > 5 µM
IC50 (UACC-62): > 5 µM
